Data published in patent EP0942721B1, “LIQUID COMPOSITION COMPRISING AN HIV PROTEASE INHIBITOR AND A C12-C18 FATTY ACID” (Abbott Laboratories, priority 1996, dated 1998).

Experiment: Oral bioavailability studies in dogs
Assay type: in vivo, beagle dogs
Conditions: dog, administered as an unformulated solid in a capsule dosage form, 5 mg/kg oral dose in dogs
Procedure: Dogs (beagle dogs, mixed sexes, weighing 7-14 kg) were fasted overnight prior to dosing, but were permitted water ad libitum. Each dog received a 100 µg/kg subcutaneous dose of histamine approximately 30 minutes prior to dosing. Each dog received a single solid dosage form corresponding to a 5 mg/kg dose of the drug. The dose was followed by approximately 10 milliliters of water. Blood samples were obtained from each animal prior to dosing and 0.25, 0.5, 1.0,1.5, 2, 3, 4, 6, 8, 10 and 12 hours after drug administration. The plasma was separated from the red cells by centrifugation and frozen (-30°C) until analysis. Concentrations of parent drug were determined by reverse phase HPLC with low wavelength UV detection following liquid-liquid extraction of the plasma samples. The parent drug area under the curve was calculated by the trapezoidal method over the time course of the study. The absolute bioavailability of each test composition was calculated by comparing the area under the curve after oral dosing to that obtained from a single intravenous dose. Each capsule or capsule composition was evaluated in a group containing at least six dogs; the values reported are averages for each group of dogs.

bioavailability (both sexes, beagle, plasma)	bioavailability at 12 h (in vivo)	SMILES
< 2%		CC(C)c1nc(CN(C)C(=O)N[C@H](C(=O)N[C@@H](Cc2ccccc2)C[C@H](O)[C@H](Cc2ccccc2)NC(=O)OCc2cncs2)C(C)C)cs1 [compound III, (2S,3S,5S)-5-(N-(N-((N-Methyl-N-((2-isopropyl-4-thiazolyl)methyl)-amino)carbonyl)valinyl)amino)-2-(N-((5-thiazolyl)methoxycarbonyl)amino)-1,6-diphenyl-3-hydroxyhexane]
	< 2%	CC(C)c1nc(CN(C)C(=O)N[C@H](C(=O)N[C@@H](Cc2ccccc2)C[C@H](O)[C@H](Cc2ccccc2)NC(=O)OCc2cncs2)C(C)C)cs1 [bis-tosylate of compound III]
